Data set [1] concerns patient derived CLL samples. In words: Growth inhibition of cells derived from patients with CLL. The settings on record: 27 patient derived CLL isolates; for pEC50: Homo sapiens, read-out: median EC50. The class given is cell-based. As to the method: HeLa, A549 and HCT116 cells were grown in high-glucose Dulbecco's Modified Eagle's Medium (DMEM, Sigma)+10% FBS+1% penicillin and streptomycin+1% L-glutamine, at 37° C. with 5% CO2 and 95% humidity. Cytotoxic screening of the ProQinase panel of 100 cell-lines was performed by ProQinase (Freiburg, Germany). Patient derived CLL isolates were prepared and screened as described by Dietrich et al. (S. Dietrich et al., J Clin Invest, 2018, 128(1), 427-445). Cell viability was determined after 48 hours using the ATP-based CellTiter Glo assay (Promega). Luminescence was measured with a Tecan Infinite F200 Microplate Reader (Tecan Group AG) and with an integration time of 0.2 seconds per well.
The response of 97 tumour samples derived from patients with CLL was investigated. All samples tumor cells were obtained from whole blood, subjected to Ficoll-Isopaque density centrifugation. CD19+B and CD3+ T cells were isolated by positive magnetic cell separation (Miltenyi Biotec). Sorted cells were checked for purity by fluorescence-activated cell sorting (FACS) with CD19/CD20 for healthy control samples and CD19/CD20/CD5 for CLL samples (BD Biosciences). Following sorting, all samples with a CD19/CD20/CD5 purity <98% were subjected to additional sorting, and the average final purity of all sorted samples was >99%. CLL samples with >[…] were not subject to purification.
Cells are incubated for three days with an eight-point three-fold titration series of the test compound from an initial concentration of 30 μM (2000 cells per well in a volume of 50 μl). Cellular viability is estimated by the addition of 25 μL of ATPlite (Perkin Elmer) with the resulting luminescence measured using an EnVision Xcite plate reader (Perkin Elmer).
In addition, the growth inhibitory response of a selection of 27 patient derived CLL isolates (S. Dietrich et al., J Clin Invest, 2018, 128(1), 427-445) against the compounds of examples 64 and 85 was evaluated using the procedure as described above.

Data set [2] is described as follows: Microsomal stability. The note with it: mouse liver microsomes, 2 μM test compound, 37° C. The class given is in vitro ADME. As to the method: Mouse hepatic microsomes were isolated from pooled (50), perfused livers of Balb/c male mice according to the standard protocol (Hill, J. R. in Current Protocols in Pharmacology 7.8.1-7.8.11, Wiley Interscience, 2003). The batch of microsomes was tested for quality control using Imipramine, Propranolol and Verapamil as reference compounds. Microsomal incubations were carried out in 96-well plates in 5 aliquots of 40 μL each (one for each time point). Liver microsomal incubation medium contained PBS (100 mM, pH 7.4), MgCl2 (3.3 mM), NADPH (3 mM), glucose-6-phosphate (5.3 mM), glucose-6-phosphate dehydrogenase (0.67 units/ml) with 0.42 mg of liver microsomal protein per ml. Control incubations were performed replacing the NADPH-cofactor system with PBS.
Test compound (2 μM, final solvent concentration 1.6%) is incubated with microsomes at 37° C., shaking at 100 rpm. Incubations are performed in duplicates. Five time points over 40 minutes are analyzed. The reactions are stopped by adding 12 volumes of 90% acetonitrile-water to incubation aliquots, followed by protein sedimentation by centrifuging at 5500 rpm for 3 minutes. Supernatants are analyzed using the HPLC system coupled with tandem mass spectrometer. The elimination constant (kel), half-life (t½) and intrinsic clearance (Clint) is determined in plot of In(AUC) versus time, using linear regression analysis.
On the technique in general: Microsomes from liver hold many membrane-bound enzymes, among them those of drug oxidation.

A short description of data set [3]: Bioavalability (PO/IV pharmacokinetic study). The data set is classed as in vivo, Male Balb/c mice. The note with it: mice, PO 30 mg/kg vs IV 10 mg/kg. As to the method:
Male Balb/c mice (11-12 weeks old, body weight 23.7 to 30.6 g and average body weight across all groups 26.5 g, SD=1.6 g) are used in this study. The animals are randomly assigned to the treatment groups before the pharmacokinetic study; all animals are fasted for 3 h before dosing. Six time points (IV: 5, 15, 30, 60, 120 and 240 min, and PO: 15, 30, 60, 120, 240, and 360 min) are used in this pharmacokinetic study. Each of the PO and IV time point treatment groups includes 4 animals; there is also control group of 2 animals. Dosing is done according to the treatment schedules outlined in the Table 2. Mice are injected IV with tribrometanol at the dose of 150 mg/kg prior to taking blood. Blood samples are withdrawn from retroorbital sinus and are collected in microcontainers containing K2EDTA. All samples are immediately prepared, flash-frozen and stored at −70° C. until subsequent bioanalysis.
Plasma samples (50 μl) are mixed with 200 μl of IS solution (100 ng/ml in acetonitrile-methanol mixture 1:1, v/v). After mixing by pipetting and centrifuging for 4 min at 6,000 rpm, 2 μl of each supernatant is injected into a LC-MS/MS system.
The concentrations of test compound are determined using a high performance liquid chromatography/tandem mass spectrometry (HPLC-MS/MS) method. […]

Data set [4] addresses T1, pirin (Homo sapiens, UniProt O00625).
T1 sequence (O00625 1-290): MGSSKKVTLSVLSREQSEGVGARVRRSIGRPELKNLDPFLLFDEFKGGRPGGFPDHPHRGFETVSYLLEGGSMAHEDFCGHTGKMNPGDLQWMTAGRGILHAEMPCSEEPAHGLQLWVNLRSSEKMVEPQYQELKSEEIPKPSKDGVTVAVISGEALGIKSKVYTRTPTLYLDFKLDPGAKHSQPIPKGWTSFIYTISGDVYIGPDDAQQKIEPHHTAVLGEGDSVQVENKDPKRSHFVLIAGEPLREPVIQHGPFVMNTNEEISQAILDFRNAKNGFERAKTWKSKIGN
As to the kind of experiment: Nano differential scanning fluorimetry (NanoDSF), thermal melting of pirin. The settings on record: 10 μM pirin in PBS, 20 μM test compound. On the technique in general: In DSF a fluorescence change marks the thermal transition of the protein.
Source text: NanoDSF is an advanced Differential Scanning Fluorimetry method for measuring protein stability using intrinsic tryptophan or tyrosine fluorescence. The fluorescence of the tryptophans and tyrosines in a protein is strongly dependent on their close surroundings. Changes in protein structure typically affect both the intensity and the emission wavelength especially of tryptophan fluorescence. By measuring fluorescence intensity at 330 nm and 350 nm, the change in fluorescence intensity and the shift of the fluorescence maximum upon unfolding can be used to detect thermal melting of the protein. Proteins are stabilized when associated with ligands and show a shift in their melting temperatures. NanoDSF has the advantages of being label free and observing the protein in solution.
A 10 μM solution of pirin in phosphate buffered saline, with or without 20 μM test compound, is subject to thermal denaturation under fluorescence monitoring using a Prometheus NT.48 instrument of NanoTemper Technologies. Unliganded pirin has a complex biphasic melting curve. […] If the test compound is a ligand to pirin, it adopts a single thermal transition some 10° C. above that of apopirin.

Each structure is given as a SMILES string. pEC50: −log10 of the molar value.

Broadly, the pEC50 is −log10 of the EC50, conventionally taken in molar units. For the molecule `Cc1cnc(NC(=O)Cc2coc3cc4c(cc23)CCC4)s1` [Example 64, 2-(6,7-Dihydro-5H-cyclopenta[f]benzofuran-3-yl)-N-(5-methylthiazol-2-yl)acetamide], in data set [1], the growth inhibitory response result is “active against all isolates” and the pEC50 was 5.22. The microsomal stability in data set [2] worked out at 10 min. Moreover, the oral bioavalability in data set [3] came out at 9.9%. For the same molecule, the “increase in the Tm of melting” value in data set [4] is “approximately 11 °C”.

For `O=C(Cc1coc2c(Cl)c(Cl)ccc12)Nc1ncc(C(F)(F)F)s1` [Example 85, 2-(6,7-Dichlorobenzofuran-3-yl)-N-[5-(trifluoromethyl)thiazol-2-yl]acetamide], in data set [1], the growth inhibitory response result was “active against all isolates” and the pEC50 was 5.78. The molecule also returned a microsomal stability in data set [2] of 113 min. The molecule further displayed an oral bioavalability in data set [3] of 40%. In addition, in data set [4], the “increase in the Tm of melting” value was “approximately 11 °C”.

The record behind these values is patent US20200223837A1, “BENZOFURAN AMIDES AND HETEROAROMATIC ANALOGUES THEREOF FOR USE IN THERAPY” (European Molecular Biology Laboratory, priority 2017, published 2020).
